Patent publication US20050176705A1, “Compounds useful in the treatment of cns disorders” (priority 2000, published 2005)
Counter-ions that a name gives are not always drawn.

Each compound was assayed against T1, human cloned 5-HT6 receptors (Homo sapiens, UniProt P50406) (assay: 5-HT6 receptor affinity (procedures outlined in WO 98/27081)). Conditions: not given.
T1 construct: expressed in transfected cells
Assay type: binding

T1 sequence (P50406 whole entry): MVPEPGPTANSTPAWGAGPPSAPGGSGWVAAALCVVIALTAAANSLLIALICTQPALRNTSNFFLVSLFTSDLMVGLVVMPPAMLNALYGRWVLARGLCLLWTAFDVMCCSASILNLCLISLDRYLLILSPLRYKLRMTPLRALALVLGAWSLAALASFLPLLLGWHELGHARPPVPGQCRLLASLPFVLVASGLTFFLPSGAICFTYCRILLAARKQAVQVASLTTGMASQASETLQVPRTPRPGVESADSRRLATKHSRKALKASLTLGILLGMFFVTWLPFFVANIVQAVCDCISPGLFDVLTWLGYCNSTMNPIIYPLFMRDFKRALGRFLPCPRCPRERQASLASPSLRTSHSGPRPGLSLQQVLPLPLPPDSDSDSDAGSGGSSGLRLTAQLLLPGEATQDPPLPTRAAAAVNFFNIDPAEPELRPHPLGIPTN

| SMILES | Ki [nM] |
| --- | --- |
| Cc1cc2c(N3CCNCC3)cccc2n1S(=O)(=O)c1cccc(Cl)c1 [Example E165, 1-(3-Chlorobenzenesulfonyl)-2-methyl-4-piperazin-1-yl-1H-indole hydrochloride] | 0.2 to 1.58 |
| O=S(=O)(c1cccc(Cl)c1)n1ccc2c(N3CCNCC3)cccc21 [Example E111] | 0.2 to 1.58 |
| O=S(=O)(c1ccc(Br)cc1)n1ccc2c(N3CCNCC3)cccc21 [Example E113] | 0.2 to 1.58 |
| Cc1cccc(S(=O)(=O)n2ccc3c(N4CCNCC4)c(Cl)ccc32)c1 [Example E140, 5-Chloro-1-(3-methylbenzenesulfonyl)-4-piperazin-4-yl-1H-indole hydrochloride] | 0.2 to 1.58 |
| COc1ccc2c(ccn2S(=O)(=O)c2ccc(C)cc2)c1N1CCNCC1 [Example E80, 5-Methoxy-4-(piperazin-1-yl)-1-(toluene-4-sulfonyl)-1H-indole] | 0.2 to 1.58 |
| N#Cc1ccc(N2CCNCC2)c2ccn(S(=O)(=O)c3cccc(Cl)c3)c12 [Example E157, 7-Cyano-1-(3-chlorobenzenesulfonyl)-4-piperazin-1-yl-1H-indole hydrochloride] | 0.2 to 1.58 |
| O=S(=O)(c1cccc(Cl)c1)n1ccc2c(N3CCNCC3)cc(Cl)cc21 [Example E166, 6-Chloro-1-(3-chlorobenzenesulfonyl)-4-piperazin-1-yl-1H-indole hydrochloride] | 0.2 to 1.58 |
| CN1CCN(c2cccc3c2ccn3S(=O)(=O)c2cccs2)CC1 [Example E98] | 0.2 to 1.58 |
| N#Cc1cc(Br)ccc1S(=O)(=O)n1ccc2c(N3CCNCC3)cccc21 [Example E171, 1-(4-Bromo-2-cyanobenzenesulfonyl)-4-piperazin-1-yl-1H-indole hydrochloride] | 0.2 to 1.58 |
| COc1ccc2c(ccn2S(=O)(=O)c2cccc(Cl)c2)c1N1CCNCC1 [Example E172, 1-(3-Chlorobenzenesulfonyl)-5-methoxy-4-piperazin-1-yl-1H-indole hydrochloride] | 0.2 to 1.58 |
| O=S(=O)(c1c(Cl)cccc1Cl)n1ccc2c(N3CCNCC3)cccc21 [Example E70] | 0.2 to 1.58 |
| O=S(=O)(c1cccc(F)c1)n1ccc2c(N3CCNCC3)cccc21 [Example E22] | 0.2 to 1.58 |
| Cc1ccc(S(=O)(=O)n2ccc3c(N4CCNCC4)cccc32)cc1Cl [Example E112] | 0.2 to 1.58 |
| O=S(=O)(c1cc(F)cc(F)c1Cl)n1ccc2c(N3CCNCC3)cccc21 [Example E131, 1-(2-Chloro-3,5-difluorobenzenesulfonyl)-4-piperazin-1-yl-1H-indole] | 0.2 to 1.58 |
| O=S(=O)(c1ccccn1)n1ccc2c(N3CCNCC3)c(Cl)ccc21 [Example E149, 5-Chloro-1-(pyridine-2-sulfonyl)-4-piperazin-4-yl-1H-indole hydrochloride] | 0.2 to 1.58 |
| O=S(=O)(c1cccc(Cl)c1)n1cc(Cl)c2c(N3CCNCC3)c(Cl)ccc21 [Example E158, 1-(3-Chlorobenzenesulfonyl)-3,5-dichloro-4-piperazin-1-yl-1H-indole hydrochloride] | 0.2 to 1.58 |
| O=S(=O)(c1cccc(Cl)c1)n1ccc2c(N3CCNCC3)ccc(Br)c21 [Example E156, 7-Bromo-1-(3-chlorobenzenesulfonyl)-4-piperazin-1-yl-1H-indole hydrochloride] | 0.2 to 1.58 |

| SMILES | Ki [nM] |
| --- | --- |
| COc1ccc(N2CCNCC2)c2ccn(S(=O)(=O)c3cccc(Cl)c3)c12 [Example E173, 1-(3-Chlorobenzenesulfonyl)-7-methoxy-4-piperazin-1-yl-1H-indole hydrochloride] | 0.2 to 1.58 |
| O=S(=O)(c1cccc(Cl)c1)n1ccc2c(N3CCNCC3)c(Cl)cc(Cl)c21 [Example E159, 1-(3-Chlorobenzenesulfonyl)-5,7-dichloro piperazin-1-yl-1H-indole hydrochloride] | 0.2 to 1.58 |
| O=S(=O)(c1cccc(Cl)c1)n1ccc2c(N3CCNCC3)ccc(Cl)c21 [Example E152, 7-Chloro-1-(3-chlorobenzenesulfonyl)-4-piperazin-1-yl-1H-indole hydrochloride] | 0.2 to 1.58 |
| Cc1cn(S(=O)(=O)c2cccc(Cl)c2)c2cccc(N3CCNCC3)c12 [Example E167, 1-(3-Chlorobenzenesulfonyl)-3-methyl-4-piperazin-1-yl-1H-indole hydrochloride] | 0.2 to 1.58 |
| O=S(=O)(c1ccccc1)n1ccc2c(N3CCNCC3)ccc(Cl)c21 [Example E154, 1-Benzenesulfonyl-7-choro-4-piperazin-1-yl-1H-indole hydrochloride] | 0.2 to 1.58 |
| O=S(=O)(c1cccc2nsnc12)n1ccc2c(N3CCNCC3)cccc21 [Example E40] | 0.2 to 1.58 |
| O=S(=O)(c1cccc(Br)c1)n1ccc2c(N3CCNCC3)cccc21 [Example E107] | 0.2 to 1.58 |
| O=S(=O)(c1ccccc1Br)n1ccc2c(N3CCNCC3)cccc21 [Example E126] | 0.2 to 1.58 |
| O=S(=O)(c1cccs1)n1ccc2c(N3CCNCC3)cccc21 [Example E121] | 0.2 to 1.58 |
| O=S(=O)(c1ccc(F)c(Cl)c1)n1ccc2c(N3CCNCC3)cccc21 [Example E123] | 0.2 to 1.58 |
| O=S(=O)(c1cccc(Cl)c1)n1ccc2c(N3CCNCC3)c(F)ccc21 [Example E163, 1-(3-Chlorobenzenesulfonyl)-5-fluoro-4-piperazin-1-yl-1H-indole hydrochloride] | 0.2 to 1.58 |
| O=S(=O)(c1ccccc1Br)n1ccc2c(N3CCNCC3)c(Cl)ccc21 [Example E137, 1-(2-Bromobenzenesulfonyl)-5-chloro-4-piperazin-1-yl-1H-indole hydrochloride] | 0.2 to 1.58 |
| O=[N+]([O-])c1cccc(S(=O)(=O)n2ccc3c(N4CCNCC4)cccc32)c1 [Example E119] | 0.2 to 1.58 |
| O=S(=O)(c1cccc(Cl)c1)n1ccc2c(N3CCNCC3)c(Cl)ccc21 [Example E132, 5-Chloro-1-(3-chlorobenzenesulfonyl)-4-piperazin-1-yl-1H-indole hydrochloride] | 0.2 to 1.58 |
| O=S(=O)(c1cc(Cl)cc(Cl)c1)n1ccc2c(N3CCNCC3)ccc(Cl)c21 [Example E153, 7-Chloro-1-(3,5-dichlorobenzenesulfonyl)-4-piperazin-1-yl-1H-indole hydrochloride] | 0.2 to 1.58 |
| O=S(=O)(c1cccc(Cl)c1)n1cc(Cl)c2c(N3CCNCC3)cccc21 [Example E151, 3-Chloro-1-(3-chlorobenzenesulfonyl)4-piperazin-1-yl-1H-indole hydrochloride] | 0.2 to 1.58 |
| O=S(=O)(c1ccccc1)n1ccc2c(N3CCNCC3)c(Cl)ccc21 [Example E135, 1-(Benzenesulfonyl)-5-chloro-4-piperazin-1-yl-1H-indole hydrochloride] | 0.2 to 1.58 |

Same assay, conditions: human cloned 5-HT6 receptors; procedures of WO 98/27081; read-out: pKi at human cloned 5-HT6 receptors (converted)

| Ki [nM] | SMILES |
| --- | --- |
| 0.2 to 1.58 | CN1CCN(c2cccc3c2ccn3S(=O)(=O)c2ccccc2Br)CC1 [Example E103] |
| 0.2 to 1.58 | COc1c(Cl)cc(Cl)cc1S(=O)(=O)n1ccc2c(N3CCNCC3)c(Cl)ccc21 [Example E78, 5-Chloro-1-(3,5-dichloro-2-methoxybenzenesulfonyl)-4-piperazin-1-yl-1H-indole trifluoroacetic acid salt] |
| 0.2 to 1.58 | CN1CCN(c2cccc3c2ccn3S(=O)(=O)c2cc(Br)c(Cl)s2)CC1 [Example E85] |
| 0.2 to 1.58 | O=S(=O)(c1ccc2ccccc2c1)n1ccc2c(N3CCNCC3)c(Cl)ccc21 [Example E77, 5-Chloro-1-(naphthalene-2-sulfonyl)-4-piperazin-1-yl-1H-indole trifluoroacetic acid salt] |
| 0.2 to 1.58 | CN1CCN(c2cccc3c2ccn3S(=O)(=O)c2cccc(C(F)(F)F)c2)CC1 [Example E93] |
| 0.2 to 1.58 | CN1CCN(c2cccc3c2ccn3S(=O)(=O)c2cc(Cl)cc(Cl)c2)CC1 [Example E99] |
| 0.2 to 1.58 | CN1CCN(c2cccc3c2ccn3S(=O)(=O)c2ccc3ccccc3c2)CC1 [Example E90] |
| 0.2 to 1.58 | O=S(=O)(c1cccc(C(F)(F)F)c1)n1ccc2c(N3CCNCC3)c(Cl)ccc21 [Example E139, 5-Chloro-1-(3-trifluoromethyl-benzenesulfonyl)-4-piperazin-1-yl-1H-indole hydrochloride] |
| 0.2 to 1.58 | CN1CCN(c2cccc3c2ccn3S(=O)(=O)c2cccc(Br)c2)CC1 [Example E82] |
| 0.2 to 1.58 | O=S(=O)(c1ccc(Cl)cc1OC(F)(F)F)n1ccc2c(N3CCNCC3)cccc21 [Example E168, 1-(4-Chloro-2-trifluoromethoxybenzenesulfonyl)-4-piperazin-1-yl-1H-indole hydrochloride] |
| 0.2 to 1.58 | CN1CCN(c2cccc3c2ccn3S(=O)(=O)c2cccc(Cl)c2)CC1 [Example E87] |
| 0.2 to 1.58 | CN1CCN(c2cccc3c2ccn3S(=O)(=O)c2ccc(F)c(Cl)c2)CC1 [Example E100] |
| 0.2 to 1.58 | CN1CCN(c2cccc3c2ccn3S(=O)(=O)c2ccccc2)CC1 [Example E94] |
| 0.2 to 1.58 | N#Cc1cc(Br)ccc1S(=O)(=O)n1ccc2c(N3CCNCC3)c(Cl)ccc21 [Example E170, 1-(4-Bromo-2-cyanobenzenesulfonyl)-5-chloro-4-piperazin-1-yl-1H-indole hydrochloride] |
| 0.2 to 1.58 | O=S(=O)(c1cccc(Cl)c1)n1ccc2c(N3CCCNCC3)ccc(Cl)c21 [Example E175, 7-Chloro-1-(3-chlorobenzenesulfonyl)-4-[1,4]diazepan-1-yl-1H-indole hydrochloride] |
| 0.2 to 1.58 | O=S(=O)(c1ccccc1C(F)(F)F)n1ccc2c(N3CCNCC3)cccc21 [Example E115] |
| 0.2 to 1.58 | CN1CCN(c2cccc3c2ccn3S(=O)(=O)c2ccccc2C(F)(F)F)CC1 [Example E91] |
